Assay results as given in article PMC2778643, “Differential role of the menthol-binding residue Y745 in the antagonism of thermally gated TRPM8 channels” (Molecular Pain, 2009).
Read-outs that look alike come from different tables or passages of the source. Each block holds one compound with its values, some of them ahead of it.

Tests used:
[1] = Solubility in the extracellular solution; type: physicochemical; settings: reproducible data above 20 μM complicated
TRPM8-wt channel [2] = molecular target: T1, TRPM8-wt channel (Mus musculus, UniProt Q8R4D5); assay: Calcium imaging (Fura-2) of HEK293 cells expressing TRPM8-wt; type: cell-based
T1 construct: The full length cDNA encoding mouse TRPM8 (NM_134252) in pcDNA5; expressed in transfected cells; host or cells: HEK293
T1 sequence (Q8R4D5 whole entry): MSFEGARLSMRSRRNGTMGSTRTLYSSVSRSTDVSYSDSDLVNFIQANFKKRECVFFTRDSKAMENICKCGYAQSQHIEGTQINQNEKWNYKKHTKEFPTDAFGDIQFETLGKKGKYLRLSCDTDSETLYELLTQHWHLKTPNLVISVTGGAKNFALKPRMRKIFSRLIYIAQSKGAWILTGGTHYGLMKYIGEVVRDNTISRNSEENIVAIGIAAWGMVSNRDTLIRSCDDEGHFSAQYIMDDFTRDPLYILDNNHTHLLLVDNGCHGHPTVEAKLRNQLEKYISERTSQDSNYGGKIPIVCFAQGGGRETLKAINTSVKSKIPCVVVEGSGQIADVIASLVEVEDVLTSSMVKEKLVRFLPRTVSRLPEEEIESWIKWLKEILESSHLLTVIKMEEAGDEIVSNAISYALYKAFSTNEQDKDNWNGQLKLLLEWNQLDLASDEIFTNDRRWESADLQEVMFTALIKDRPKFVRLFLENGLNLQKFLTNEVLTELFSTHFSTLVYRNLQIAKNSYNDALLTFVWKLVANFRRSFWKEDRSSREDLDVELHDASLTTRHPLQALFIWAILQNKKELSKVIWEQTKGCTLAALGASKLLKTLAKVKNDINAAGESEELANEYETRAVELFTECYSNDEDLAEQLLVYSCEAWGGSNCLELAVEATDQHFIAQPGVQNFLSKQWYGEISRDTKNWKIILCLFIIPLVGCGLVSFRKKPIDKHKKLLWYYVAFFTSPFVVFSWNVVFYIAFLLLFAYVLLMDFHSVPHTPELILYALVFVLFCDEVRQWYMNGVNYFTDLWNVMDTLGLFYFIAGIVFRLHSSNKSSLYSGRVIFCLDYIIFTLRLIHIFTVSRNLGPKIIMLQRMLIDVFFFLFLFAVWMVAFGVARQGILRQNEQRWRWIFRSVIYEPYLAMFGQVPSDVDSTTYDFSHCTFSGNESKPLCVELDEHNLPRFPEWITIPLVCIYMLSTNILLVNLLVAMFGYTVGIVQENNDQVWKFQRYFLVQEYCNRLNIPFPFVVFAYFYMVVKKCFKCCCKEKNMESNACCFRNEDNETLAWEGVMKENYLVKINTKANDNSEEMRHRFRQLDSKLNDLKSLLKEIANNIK
Experimental: (§1) The full length cDNA encoding mouse TRPM8 (NM_134252) in pcDNA5 (Invitrogen) was kindly provided by Dr. Ardem Patapoutian, (Scripps Research Institute, La Jolla, CA). The TRPM8-Y745H mutant was obtained by site-directed mutagenesis with the following primers: (for) 5'-[…]-3'; (rev) 5'-[…]-3', and Pfu Turbo Taq DNA Polymerase (Roche).
(§2) HEK293 cells were cultured in DMEM containing 10% of foetal bovine serum and antibiotics, and plated in 2 cm^2 wells at 400.000-500.000 cells/well. 20-24 h after plating, the cells were co-transfected with eGFP (0.3 μg/well) and TRPM8-wt or TRPM8-Y745H (2 μg/well) by incubating them with a solution containing the plasmid DNA and Lipofectamine 2000 (Invitrogen) for 5 hours. Subsequently, the cells were trypsinized and replated on poly-L-lysine-coated round coverslips (6 mm diameter). 20-48 h post-transfection, GFP(+) cells were selected for calcium imaging or electrophysiology experiments.
(§3) Prior to experiment, HEK293 cells transfected with the TRPM8-wt/Y745H constructs were incubated with 5 μM Fura-2AM dissolved in the bath solution and 0.02% Pluronic (both from Invitrogen) for 40 min at 37°C in darkness. Fluorescence measurements were made with a Leica DM IRE2 inverted microscope fitted with a CCD camera (Imago QE Sensicam, TillPhotonics, Graefelfing, Germany). Fura-2 was excited at 340 nm and 380 nm with a Polychrome IV monochromator (Till Photonics) and the emitted fluorescence was filtered with a 510 nm longpass filter.
(§4) Coverslip pieces with cultured cells were placed in a microchamber and continuously perfused with solutions warmed at 33°C. The temperature was adjusted with a water-cooled Peltier device placed at the inlet of the chamber, and controlled by a feedback device. Cold-sensitivity was investigated with a temperature decrease to 18-20°C (Figure 1B).

[3] = molecular target: T2, TRPM8-Y745H mutant channel (Mus musculus, UniProt Q8R4D5, Y745H); assay: Calcium imaging (Fura-2) of HEK293 cells expressing TRPM8-Y745H; type: cell-based
T2 construct: The full length cDNA encoding mouse TRPM8 (NM_134252) in pcDNA5; expressed in transfected cells; host or cells: HEK293
T2 sequence (Q8R4D5 whole entry Y745H): as the sequence (Q8R4D5 whole entry) above, with Y745H counted along it
Experimental: as §1, §2, §3, §4

TRPM8-wt channel [4] = settings: calcium imaging (CI), cited from earlier work
[5] = molecular target: T2, TRPM8-Y745H mutant channel; assay: Whole-cell patch clamp of HEK293 cells expressing TRPM8-Y745H; type: cell-based; settings: for Inhibition of voltage-activated TRPM8-Y745H current: +120 mV
Experimental: as §1, §2
(§5) Whole-cell voltage-clamp recordings of TRPM8-wt/Y745H transfected HEK293 cells were performed simultaneously with temperature recordings. Current development was monitored at a holding potential of -60 mV. For information on voltage-dependent effects, 1.25-s-duration voltage ramps from -100 to +150 mV were delivered at desired time points. Standard patch-pipettes (3-5 MΩ) were made of borosilicate glass capillaries (Harvard Apparatus Ltd, UK), and contained (in mM): 150 NaCl, 3 MgCl2, 5 EGTA, 10 HEPES, (278 mOsm/kg; pH 7.2, adjusted with NaOH). During electrophysiological recordings, a divalent cation -free bath solution was used to minimize desensitization, which contained: 150 NaCl, 10 EDTA, 10 HEPES and 10 glucose (pH 7.4 with NaOH). The divalent-free solution was used in the preparation of all chemical modulator containing solutions. Current signals were recorded with an Axopatch 200B patch-clamp amplifier (Molecular Devices, Sunnyvale, CA, U.S.A.) applying series resistance compensation (60-90%). Stimulus delivery and data acquisition were performed using pClamp 9 software (Molecular Devices). Data were sampled at 5 kHz (ramps) and 1 kHz (timecourse) and filtered online at 2 kHz.
as §4
Experiments were always performed in parallel with cells expressing TRPM8-wt and TRPM8-Y745H to minimize any day-to-day variability in experimental conditions. To estimate the shifts in the voltage-dependence of activation of TRPM8-wt/Y745H in HEK293 cells, current-voltage (I-V) relationships from voltage ramps were fitted with an equation that combines a linear conductance multiplied by a Boltzmann activation term: [drawing 1]

TRPM8-wt channel [6] = settings: electrophysiology (EP), +80 mV, cited from earlier work
TRPM8-wt channel [7] = molecular target: T1, TRPM8-wt channel; assay: Whole-cell patch clamp of HEK293 cells expressing TRPM8-wt; type: cell-based; settings: for Inhibition of voltage-activated TRPM8-wt current: 33°C, +120 mV
Experimental: as §1, §2, §5, §4
Experiments were always performed in parallel with cells expressing TRPM8-wt and TRPM8-Y745H to minimize any day-to-day variability in experimental conditions. […]

TRPM8-wt channel [8] = molecular target: T1, TRPM8-wt channel; design: method as in PMID 14757700; settings: 100 μM menthol-activated TRPM8-wt, FLIPR; cited from earlier work
[9] = 100 μM menthol-activated TRPM8-wt, modified from ref 25, read-out: IC50 menthol
[10] = cold-activated TRPM8-wt, read-out: IC50 cold
[11] = cold-activated TRPM8-wt, read-out: IC50 cold (converted)
[12] = 3 μM antagonist, compared with TRPM8-wt
[13] = 100 μM, at 33°C or during cooling

Compound: c1c[nH]cn1 [Imidazole, 1,3-diazacyclopenta-2,4-diene]
- Inhibition of cooling-activated TRPM8 wild-type (TRPM8-wt channel [2]; 20 μM, 100 μM and 1 mM): ineffective
- Inhibition of cooling-activated TRPM8-Y745H ([3]; 20 μM, 100 μM and 1 mM): ineffective

Compound: Oc1cc2c(cc1O)CN(C(=S)NCCc1ccc(Cl)cc1)CCC2 [Capsazepine, N-[2-(4-Chlorophenyl)ethyl]-1,3,4,5-tetrahydro-7,8-dihydroxy-2H-2-benzazepine-2-carbothioamide]
- IC50 (TRPM8-wt channel [2]; cold-activated TRPM8-wt, calcium imaging (CI), this work): 12 ± 2 µM
- IC50 (TRPM8-wt channel [8]): 18 ± 1 µM
- Inhibitory potency at cooling-activated TRPM8-Y745H compared with wild-type (dose-inhibition curves) ([3]; calcium imaging, cooling-activated): lost part of their inhibitory potential

Compound: CC1CCC(C(C)C)C(O)C1 [menthol, L-menthol]
- Agonist effect on intracellular calcium, TRPM8-wt (TRPM8-wt channel [2]; [13]): increase the intracellular calcium levels
- Agonist effect on whole-cell current, TRPM8-Y745H ([5]; 100 μM, 33°C, all potentials): completely insensitive to menthol
- Agonist effect on intracellular calcium, TRPM8-Y745H [3, 13]: lack of menthol responses

Continued, in another order:

- Solubility in the extracellular solution [1]: limited solubility
Compound: Clc1ccccc1C(c1ccccc1)(c1ccccc1)n1ccnc1 [Clotrimazole, 1-[(2-chlorophenyl)diphenylmethyl]-1H-imidazole]

- Block of cooling-activated TRPM8-Y745H current ([5]; 3 μM, +80 mV): 98%
- Inhibition of voltage-activated TRPM8-Y745H current ([5]; 33°C, 3 μM): without affecting the block
- Inhibition of voltage-activated TRPM8-wt current (TRPM8-wt channel [7]; 3 μM): strong inhibition
Compound: CC(C)(C)c1ccc(NC(=O)N2CCN(c3ncccc3Cl)CC2)cc1 [BCTC, 4-[3-chloro-pyridin-2-yl]-piperazine-1-carboxylic acid [4-tert-butyl-phenyl]-amide]
- IC50 (TRPM8-wt channel [4]; [9]): 0.47 ± 0.01 µM
- IC50 (TRPM8-wt channel [4]; [10]): 0.68 ± 0.06 µM
- IC50 (TRPM8-wt channel [6]; 100 μM menthol-activated TRPM8-wt, modified from ref 25, read-out: IC50 menthol (converted)): 0.34 µM
- IC50 (TRPM8-wt channel [6]; [11]): 0.54 µM
- Block of cold-evoked [Ca2+]i response of TRPM8-Y745H [3, 12]: maintained its full and reversible blocking potential

- Block of cold-evoked TRPM8-Y745H current ([5]; 3 μM): completely failed to block
- Block of cold-evoked TRPM8-Y745H current ([5]; 20 μM): lacked any inhibitory effects
- Inhibition of voltage-activated TRPM8-Y745H current ([5]; 33°C, 3 μM): fully abrogated the inhibition
- Apparent gating charge during antagonist application ([5]; TRPM8-Y745H, cooling, 3 μM SKF96365): 0.63 ± 0.04
- Block of cold-evoked [Ca2+]i response of TRPM8-Y745H [3, 12]: nearly complete loss of effect
- Block of cold-evoked [Ca2+]i response of TRPM8-Y745H ([3]; 20 μM (super saturating concentration), compared with 3 μM): unable to increase block
- Block of cold-evoked TRPM8-wt current (TRPM8-wt channel [7]; 3 μM): potent antagonism
- Inhibition of voltage-activated TRPM8-wt current (TRPM8-wt channel [7]; 3 μM): strong inhibition
- Apparent gating charge during antagonist application (TRPM8-wt channel [7]; TRPM8-wt, cooling, 3 μM SKF96365): 0.73 ± 0.04
Compound: COc1ccc(CCCOC(Cn2ccnc2)c2ccc(OC)cc2)cc1 (centres unmarked) [SKF96365]
- IC50 (TRPM8-wt channel [4]; [9]): 3 ± 1 µM
- IC50 (TRPM8-wt channel [4]; [10]): 1 ± 0.2 µM
- IC50 (TRPM8-wt channel [6]; [11]): 0.8 µM
